Measurements as given in ChEMBL document CHEMBL5120826, “Effects of β-lapachone and β-nor-lapachone on multidrug efflux transporters and biofilms of Candida glabrata” (Bioorg Med Chem, 2022).
Values after ≈ are worked out from the molar mass of the structure shown. Active and inactive are the calls of the source. No cut-off for these calls is given here.

Legend:
[1] = test system: Saccharomyces cerevisiae; test: Indifferent antifungal activity against fluconazole resistant Saccharomyces cerevisiae overexpressing CgCdr1p transporter assessed as fractional inhibitory concentration index incubated for 48 hrs by checkboard assay based microplate reader analysis; type: functional
[2] = test system: Saccharomyces cerevisiae; test: Indifferent antifungal activity against fluconazole resistant Saccharomyces cerevisiae overexpressing CgCdr1p transporter assessed as fractional inhibitory concentration incubated for 48 hrs in presence of lapachone by checkboard assay based microplate reader analysis; type: functional
[3] = test system: Saccharomyces cerevisiae; test: Indifferent antifungal activity against fluconazole resistant Saccharomyces cerevisiae overexpressing CgCdr1p transporter assessed as reduction in fungal growth incubated for 48 hrs in presence of lapachone by checkboard assay based microplate reader analysis; type: functional
[4] = test system: Saccharomyces cerevisiae; test: Indifferent antifungal activity against fluconazole resistant Saccharomyces cerevisiae overexpressing CgCdr1p transporter assessed as reduction in fungal growth incubated for 48 hrs in presence of fluconazole by checkboard assay based microplate reader analysis; type: functional
[5] = test system: Saccharomyces cerevisiae; test: Indifferent antifungal activity against fluconazole resistant Saccharomyces cerevisiae overexpressing CgCdr2p transporter assessed as reduction in fungal growth incubated for 48 hrs in presence of lapachone by checkboard assay based microplate reader analysis; type: functional
[6] = test system: Saccharomyces cerevisiae; test: Indifferent antifungal activity against fluconazole resistant Saccharomyces cerevisiae overexpressing CgCdr2p transporter assessed as reduction in fungal growth incubated for 48 hrs in presence of fluconazole by checkboard assay based microplate reader analysis; type: functional
[7] = test system: Saccharomyces cerevisiae; test: Indifferent antifungal activity against fluconazole resistant Saccharomyces cerevisiae overexpressing CgCdr1p transporter assessed as fractional inhibitory concentration in presence of fluconazole incubated for 48 hrs by checkboard assay based microplate reader analysis; type: functional
[8] = test system: Saccharomyces cerevisiae; test: Indifferent antifungal activity against fluconazole resistant Saccharomyces cerevisiae overexpressing CgCdr2p transporter assessed as fractional inhibitory concentration incubated for 48 hrs in presence of lapachone by checkboard assay based microplate reader analysis; type: functional
[9] = test system: Saccharomyces cerevisiae; test: Antifungal activity against fluconazole resistant Saccharomyces cerevisiae overexpressing CgCdr2p transporter assessed as reduction in fungal growth incubated for 48 hrs by checkboard assay based microplate reader analysis; type: functional
[10] = test system: Saccharomyces cerevisiae; test: Indifferent antifungal activity against fluconazole resistant Saccharomyces cerevisiae overexpressing CgCdr2p transporter assessed as fractional inhibitory concentration index incubated for 48 hrs by checkboard assay based microplate reader analysis; type: functional
[11] = test system: Saccharomyces cerevisiae; test: Indifferent antifungal activity against fluconazole resistant Saccharomyces cerevisiae overexpressing CgCdr2p transporter assessed as fractional inhibitory concentration in presence of fluconazole incubated for 48 hrs by checkboard assay based microplate reader analysis; type: functional
[12] = test system: Saccharomyces cerevisiae; test: Antifungal activity against fluconazole resistant Saccharomyces cerevisiae overexpressing CgCdr1p transporter assessed as reduction in fungal growth incubated for 48 hrs by checkboard assay based microplate reader analysis; type: functional
[13] = test system: Saccharomyces cerevisiae; test: Antifungal activity against fluconazole resistant Saccharomyces cerevisiae overexpressing CgCdr1p transporter assessed as reduction in fungal growth at lower concentration incubated for 48 hrs by serial dilution method; type: functional, organism-based

Compound	fractional inhibitory concentration index (FICI) [1]	FIC [2] [µg/mL]	MIC [3] [mg/L]	MIC [4] [mg/L]	MIC [5] [mg/L]	MIC [6] [mg/L]	FIC [7] [µg/mL]	FIC [8] [µg/mL]	MIC [9] [mg/L]	fractional inhibitory concentration index (FICI) [10]	FIC [11] [µg/mL]	MIC [12] [mg/L]	Activity [13]
CC1(C)CC2=C(O1)C(=O)c1ccccc1C2=O	2	1	> 100	500	12.5	62.5	1	1	12.5 (≈ 54.8 µM)	2	1	> 100	
OC(Cn1cncn1)(Cn1cncn1)c1ccc(F)cc1F													Active
CC1(C)CCC2=C(O1)C(=O)c1ccccc1C2=O [ALPHA-LAPACHONE]	2	1	> 100	500	> 100	62.5	1	1	> 62.5	2	1	> 100	
